Patent US4909940A, “Extraction of process chemicals from labile biological mixtures with organic alcohols or with halogenated hydrocarbons” (priority 1987, dated 1990)
Read-outs that look alike come from different tables or passages of the source.

Columns and labels:
[1] = Removal of TRITON X-45 from AHF concentrate with alcohols; conditions: 0.3% TNBP and 1% TRITON X-45; 10% (w/v) alcohol, 30 minutes, ambient
AHF [2] = test: AHF retention after extraction of AHF concentrate with alcohols; format: biochemical, human; conditions: 0.3% TNBP and 1% TRITON X-45; 10% (w/v) alcohol, 30 minutes, ambient
[3] = Aqueous solubility of alcohols; conditions: water
[4] = Removal of TRITON X-45 from AHF concentrate with halogenated hydrocarbons; conditions: 1% TRITON X-45; 5% (w/v) halogenated hydrocarbon, 30 minutes, ambient
Description: (§2) An AHF concentrate prepared from human plasma was treated with 0.3% TNBP and either 1% "TRITON X-45" or 1% "TWEEN 80" to inactivate virus. Following treatment, the solution was extracted one time with 5% (w/v) of a halogenated hydrocarbon by mixing for a period of 30 minutes at ambient temperature. The quantity of residual AHF, TNBP and detergent present in the aqueous solution was measured and compared with the unextracted control.

AHF [5] = test: AHF retention after extraction of AHF concentrate with halogenated hydrocarbons; format: biochemical, human; conditions: 5% (w/v) halogenated hydrocarbon, 30 minutes, ambient
Description: as §2

[6] = Removal of TNBP from AHF concentrate with halogenated hydrocarbons; conditions: 0.3% TNBP; 5% (w/v) halogenated hydrocarbon, 30 minutes, ambient
Description: as §2

[7] = Extraction of process chemicals from plasma: TRITON X45; conditions: 1% TRITON X45 in plasma
Text: (§1) The results are in general agreement with those observed extracting from saline.

[8] = Removal of TNBP from cryoprecipitate; conditions: extracted two times, 10% FORANE or 10% FORANE and 5% heptanol; lyophilized
[9] = Extraction of process chemicals from plasma: TNBP; conditions: 2% TNBP in plasma
Text: as §1

AHF [10] = test: Protein functional activity after extraction of plasma: AHF; format: biochemical; conditions: 10% extractant, 30 minutes, ambient
[11] = Removal of TRITON X-45 from cryoprecipitate; conditions: extracted two times, 10% FORANE or 10% FORANE and 5% heptanol; lyophilized
AHF [12] = test: Recovery of AHF procoagulant activity following extraction; format: biochemical; conditions: for AHF recovery: AHF concentrate or plasma; for AHF % Recovery / AHF Activity After: 5% extractant
[13] = Extraction of process chemicals from plasma: TRITON X114; conditions: 1% TRITON X114 in plasma
Text: as §1

Antithrombin III = test: Protein functional activity after extraction of plasma: Antithrombin III; format: biochemical; conditions: 10% extractant, 30 minutes, ambient
Description: (§3) Plasma was extracted with either 10% "FORANE" or 10% 2-octanol for 30 minutes at ambient temperature.

AHF [14] = test: AHF activity retained after depyrogenation extraction; format: biochemical; conditions: 10% (v/v) extractant, 30 minutes, 24° C.
Description: AHF concentrate containing 6.4 ng/ml of endotoxin was extracted by mechanically shaking with 10% (v/v) 2-octanol or "FORANE" for 30 minutes at 24° C. After separation of the extractant by centrifugation, the pyrogen level was determined by the Limulus Amebocyte Lysate assay with a sensitivity of 0.025 ng/ml of endotoxin. The effect of these treatments is shown below in Table XI. […] More than 90% of the original AHF activity was retained following the extraction.

[15] = Extraction of process chemicals from saline: TRITON X100; conditions: 1% TRITON X100 in saline
red blood cells = test: Red blood cell retention on extraction with FORANE; set-up: species or system human; conditions: 10% FORANE
[16] = Extraction of process chemicals from saline: TRITON X114; conditions: 1% TRITON X114 in saline
[17] = Extraction of process chemicals from saline: TNBP; conditions: 1% TNBP in saline
Factor IX = test: Protein functional activity after extraction of plasma: Factor IX; format: biochemical; conditions: 10% extractant, 30 minutes, ambient
Description: as §3

[18] = Extraction of process chemicals from plasma: TWEEN 80; conditions: 1% TWEEN 80 in plasma
Text: as §1

[19] = Extraction of process chemicals from plasma: TRITON X100; conditions: 1% TRITON X100 in plasma
Text: as §1

[20] = Removal of TWEEN 80 from AHF concentrate with halogenated hydrocarbons; conditions: 1% TWEEN 80; 5% (w/v) halogenated hydrocarbon, 30 minutes, ambient
Description: as §2

AHF [21] = test: AHF recovery after extraction of cryoprecipitate; format: biochemical; conditions: extracted two times, 10% FORANE or 10% FORANE and 5% heptanol; sterile filtered, lyophilized
[22] = Extraction of process chemicals from saline: TWEEN 80; conditions: 1% TWEEN 80 in saline
[23] = Merocyanine removal from saline on extraction with FORANE; conditions: 10% FORANE
[24] = Extraction of process chemicals from saline: TRITON X45; conditions: 1% TRITON X45 in saline
[25] = Extraction of process chemicals from saline: Nonoxynol; conditions: 1% Nonoxynol in saline; 5% extractant
[26] = tested on: Vesicular stomatitis virus; test: microbe, parasite or virus in culture; format: cell-based
[27] = water

SMILES: CC(C)CCO [isoamyl alcohol]
- TRITON X-45 (% Removal) [1]: 100%
- AHF (% Retention) (AHF [2]): 1%
- Aqueous Solubility [3]: 2.0 g %

SMILES: FC(F)OC(F)(F)C(F)Cl (stereo not shown) [Ethrane, 2-chloro-1,1,2-trifluoroethyl difluoromethyl ether]
- Percent Removal TRITON X-45 [4]: 99%
- % Retention AHF (AHF [5]): 100%
- Percent Removal TNBP [6]: 99%

SMILES: FC(F)OC(Cl)C(F)(F)F (stereo not shown) [FORANE, 1-chloro-2,2,2-trifluoroethyl difluoromethyl ether]
- Percent Extraction ([7]; 5% extractant): 91%
- Percent Extraction ([7]; 20% extractant): 99%
- Percent Removal TNBP [8]: 99.88%
- Percent Extraction ([9]; 5% extractant): 94%
- Percent Extraction ([9]; 20% extractant): 96%
- % Retention AHF (AHF [10]): 98%
- Percent Removal TRITON X-45 [11]: 96%
- Percent Removal TRITON X-45 [4]: 99%
- AHF recovery (AHF [12]): ~100%
- AHF % Recovery (AHF [12]; AHF concentrate): 102%
- AHF Activity After (AHF [12]; AHF concentrate): 2.69 units/mL
- Percent Extraction ([13]; 5% extractant): 96%
- Percent Extraction ([13]; 20% extractant): 96%
- % Retention Antithrombin III (Antithrombin III): 100%
- % Retention AHF (AHF [5]): 100%
- original AHF activity retained (AHF [14]): More than 90%
- Percent Extraction ([15]; 5% extractant): 99%
- Percent Extraction ([15]; 20% extractant): 99%
- Red Blood Cell Retention (red blood cells): 97%
- Percent Extraction ([16]; 5% extractant): 99%
- Percent Extraction ([16]; 20% extractant): 99%
- Percent Extraction ([17]; 5% extractant): 99%
- Percent Extraction ([17]; 20% extractant): 99%
- % Retention Factor IX (Factor IX): 99%
- Percent Extraction ([18]; 20% extractant): 66%
- Percent Extraction ([19]; 5% extractant): 95%
- Percent Extraction ([19]; 20% extractant): 96%
- Percent Removal TNBP [6]: 99%
- Percent Removal TWEEN 80 [20]: 87%
- AHF recovery (AHF [21]): 95%
- Percent Extraction ([22]; 5% extractant): 85%
- Percent Extraction ([22]; 20% extractant): 87%
- Merocyanine % Removal [23]: 83%
- Percent Extraction ([24]; 5% extractant): 99%
- Percent Extraction ([24]; 20% extractant): 99%

SMILES: CCCCCO [1-pentanol]
- Percent Extraction [25]: 92%
- Percent Extraction ([7]; 5% extractant): 80%
- Percent Extraction ([9]; 5% extractant): 98%
- AHF recovery (AHF [12]): approximately 1%
- AHF % Recovery (AHF [12]; AHF concentrate): 1%
- AHF Activity After (AHF [12]; AHF concentrate): 0.02 units/mL
- AHF % Recovery (AHF [12]; plasma): 1%
- AHF Activity After (AHF [12]; plasma): 0.01 units/mL
- Percent Extraction ([13]; 5% extractant): 75%
- Percent Extraction ([15]; 5% extractant): 92%
- Percent Extraction ([16]; 5% extractant): 91%
- Percent Extraction ([17]; 5% extractant): 99%
- Percent Extraction ([18]; 5% extractant): 7%
- Percent Extraction ([19]; 5% extractant): 65%
- Percent Extraction ([22]; 5% extractant): 28-42%
- Percent Extraction ([24]; 5% extractant): 97%

SMILES: FC(F)(Cl)C(F)(Cl)Cl [1,2,2-Trifluorotrichloroethane, 1,2,2-trifluorotrichloroethane]
- Percent Removal TRITON X-45 [4]: 8%
- % Retention AHF (AHF [5]): 98%
- Percent Removal TNBP [6]: 93%
- Percent Removal TWEEN 80 [20]: 3%

SMILES: CCCCCCCCCCCO [undecanol]
- TRITON X-45 (% Removal) [1]: 100%
- AHF (% Retention) (AHF [2]): 94%
- Aqueous Solubility [3]: < 0.05 g %

SMILES: CCCCN1C(=O)C(=CC=CC=C2Oc3ccccc3N2CCCS(=O)(=O)O)C(=O)N(CCCC)C1=S [merocyanine 540]
- Final Virus Titer [26]: < -0.5
- Virus titer, Control (no light) [26]: 3.7
- log reduction at 40 µg/mL ([26]; Vesicular stomatitis virus, 1 h, read-out: Total Virus Kill): > 4.2

SMILES: CCCCCO [amyl alcohol]
- TRITON X-45 (% Removal) [1]: 100%
- AHF (% Retention) (AHF [2]): 1%
- Aqueous Solubility [27]: 2.3 g %

SMILES: CCCCCCO [hexanol]
- TRITON X-45 (% Removal) [1]: 100%
- AHF (% Retention) (AHF [2]): 63%

SMILES: FC1(F)C(F)(F)C(F)(F)C2(F)C(F)(F)C(F)(F)C(F)(F)C(F)(F)C2(F)C1(F)F (stereo not shown) [Perfluorodecalin]
- Percent Removal TRITON X-45 [4]: 0%
- % Retention AHF (AHF [5]): 107%
- Percent Removal TNBP [6]: 14%
- Percent Removal TWEEN 80 [20]: 0%

SMILES: CCCCCCCO [heptanol]
- TRITON X-45 (% Removal) [1]: 100%
- AHF (% Retention) (AHF [2]): 98%
- Aqueous Solubility [27]: 0.2 g %

SMILES: CCCCCCCCO [1-octanol]
- TRITON X-45 (% Removal) [1]: 100%
- AHF (% Retention) (AHF [2]): 96%
- Aqueous Solubility [3]: 0.05 g %

SMILES: CCCCCCCCCCO [1-decanol]
- TRITON X-45 (% Removal) [1]: 100%
- AHF (% Retention) (AHF [2]): 100%
- Aqueous Solubility [3]: < 0.05 g %

SMILES: CCCCCCC(C)O (stereo not shown) [2-octanol]
- Percent Extraction [25]: 49%
- Percent Extraction ([7]; 5% extractant): 62%
- Percent Extraction ([9]; 5% extractant): 98%
- TRITON X-45 (% Removal) [1]: 100%
- AHF (% Retention) (AHF [2]): 93%
- % Retention AHF (AHF [10]): 95%
- AHF recovery (AHF [12]): approximately 90%
- AHF % Recovery (AHF [12]; AHF concentrate): 89%
- AHF Activity After (AHF [12]; AHF concentrate): 2.35 units/mL
- AHF % Recovery (AHF [12]; plasma): 91%
- AHF Activity After (AHF [12]; plasma): 1.15 units/mL
- Percent Extraction ([13]; 5% extractant): 33%
- Aqueous Solubility [3]: 0.05 g %
- % Retention Antithrombin III (Antithrombin III): 100%
- original AHF activity retained (AHF [14]): More than 90%
- Percent Extraction ([15]; 5% extractant): 60%
- Percent Extraction ([16]; 5% extractant): 94%
- Percent Extraction ([17]; 5% extractant): 99%
- % Retention Factor IX (Factor IX): 99%
- Percent Extraction ([18]; 5% extractant): 21%
- Percent Extraction ([19]; 5% extractant): 19%
- Percent Extraction ([22]; 5% extractant): 0-12%
- Percent Extraction ([24]; 5% extractant): 83-96%

SMILES: CCCCCCCCCO [1-nonanol]
- TRITON X-45 (% Removal) [1]: 100%
- AHF (% Retention) (AHF [2]): 100%

SMILES: FC(F)(F)C(F)(F)C(F)(F)C(F)(F)N(C(F)(F)C(F)(F)C(F)(F)C(F)(F)F)C(F)(F)C(F)(F)C(F)(F)C(F)(F)F [Perfluorotributyl amine]
- Percent Removal TRITON X-45 [4]: 0%
- % Retention AHF (AHF [5]): 112%
- Percent Removal TNBP [6]: 31%
- Percent Removal TWEEN 80 [20]: 3%

SMILES: FC(F)(F)C(F)(F)C(F)(F)C(F)(F)C(F)(F)C(F)(F)F [Perfluorohexane]
- Percent Removal TRITON X-45 [4]: 0%
- % Retention AHF (AHF [5]): 98%
- Percent Removal TNBP [6]: 27%
- Percent Removal TWEEN 80 [20]: 0%
